Measurements published in the supplement of paper PMC10307832.

Key:
Experiment in all cases: relative viability (nuclei count vs DMSO), 5 days (fraction); higher = more cells survive
[1] = compound: O=C(O)c1ccc2c(c1)nc(Nc1cccc(Cl)c1)c1ccncc12 [Silmitasertib] + CC(=O)Nc1cccc(-n2c(=O)n(C3CC3)c(=O)c3c(Nc4ccc(I)cc4F)n(C)c(=O)c(C)c32)c1 [Trametinib] (partner 0.02 µM)
Summary of the method: (§1)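 One day after seeding in 1536-well plates, lung cancer cell lines were dosed by pin tool. Dosing was either single-drug or a fixed anchor-drug dose plus five library-drug doses (not always all listed) in √10 steps. After 5 days, nuclei were stained in one fix-and-stain step and counted on 4× images, and relative viability is the nuclei count of treated wells over that of vehicle wells, given as the median of duplicate plates.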

[2] = compound: O=C(O)c1ccc2c(c1)nc(Nc1cccc(Cl)c1)c1ccncc12 [Silmitasertib] + CCNC(=O)c1noc(-c2cc(C(C)C)c(O)cc2O)c1-c1ccc(CN2CCOCC2)cc1 [Luminespib] (partner 0.01 µM)
Summary of the method: as §1

Silmitasertib + OSI-027 = compound: O=C(O)c1ccc2c(c1)nc(Nc1cccc(Cl)c1)c1ccncc12 [Silmitasertib] + COc1cccc2cc(-c3nc([C@H]4CC[C@H](C(=O)O)CC4)n4ncnc(N)c34)[nH]c12 [OSI-027] (partner 0.5 µM)
Summary of the method: as §1

Silmitasertib + AZD7762 = compound: O=C(O)c1ccc2c(c1)nc(Nc1cccc(Cl)c1)c1ccncc12 [Silmitasertib] + NC(=O)Nc1cc(-c2cccc(F)c2)sc1C(=O)N[C@H]1CCCNC1 [AZD7762] (partner 0.2 µM)
Summary of the method: as §1

[3] = compound: O=C(O)c1ccc2c(c1)nc(Nc1cccc(Cl)c1)c1ccncc12 [Silmitasertib] + O=C(CCCCCCC(=O)Nc1ccccc1)NO [Vorinostat] (partner 1 µM)
Summary of the method: as §1

## NCI-H2170
[1]; first compound 0.04 µM
  relative viability: 0.918
[1]; first compound 0.4 µM
  relative viability: 0.661
[1]; first compound 1.265 µM
  relative viability: 0.833
[1]; first compound 4 µM
  relative viability: 0.821
[2]; first compound 0.04 µM
  relative viability: 0.657
[2]; first compound 0.4 µM
  relative viability: 0.593
[2]; first compound 1.265 µM
  relative viability: 0.656
[2]; first compound 4 µM
  relative viability: 0.707
Silmitasertib + OSI-027; first compound 0.04 µM
  relative viability: 0.798
Silmitasertib + OSI-027; first compound 0.4 µM
  relative viability: 0.535
Silmitasertib + OSI-027; first compound 1.265 µM
  relative viability: 0.619
Silmitasertib + OSI-027; first compound 4 µM
  relative viability: 0.54
Silmitasertib + AZD7762; first compound 0.04 µM
  relative viability: 0.89
Silmitasertib + AZD7762; first compound 0.4 µM
  relative viability: 0.554
Silmitasertib + AZD7762; first compound 1.265 µM
  relative viability: 0.836
Silmitasertib + AZD7762; first compound 4 µM
  relative viability: 0.968
[3]; first compound 0.04 µM
  relative viability: 0.81
[3]; first compound 0.4 µM
  relative viability: 0.503
[3]; first compound 1.265 µM
  relative viability: 0.73
[3]; first compound 4 µM
  relative viability: 0.683

## NCI-H2342
[1]; first compound 0.04 µM
  relative viability: 0.909
[1]; first compound 1.265 µM
  relative viability: 0.781
[1]; first compound 4 µM
  relative viability: 0.811
[2]; first compound 0.04 µM
  relative viability: 0.708
[2]; first compound 0.4 µM
  relative viability: 0.729
[2]; first compound 1.265 µM
  relative viability: 0.715
[2]; first compound 4 µM
  relative viability: 0.778
Silmitasertib + OSI-027; first compound 0.04 µM
  relative viability: 0.762
Silmitasertib + OSI-027; first compound 0.4 µM
  relative viability: 0.606
Silmitasertib + OSI-027; first compound 1.265 µM
  relative viability: 0.504
Silmitasertib + OSI-027; first compound 4 µM
  relative viability: 0.539
Silmitasertib + AZD7762; first compound 0.04 µM
  relative viability: 0.471
Silmitasertib + AZD7762; first compound 1.265 µM
  relative viability: 0.387
Silmitasertib + AZD7762; first compound 4 µM
  relative viability: 0.401
[3]; first compound 0.04 µM
  relative viability: 0.782
[3]; first compound 1.265 µM
  relative viability: 0.746
[3]; first compound 4 µM
  relative viability: 0.727

## NCI-H2347
[1]; first compound 0.04 µM
  relative viability: 0.264
[1]; first compound 0.4 µM
  relative viability: 0.263
[1]; first compound 1.265 µM
  relative viability: 0.277
[1]; first compound 4 µM
  relative viability: 0.266
[2]; first compound 0.04 µM
  relative viability: 0.28
[2]; first compound 1.265 µM
  relative viability: 0.48
[2]; first compound 4 µM
  relative viability: 0.236
Silmitasertib + OSI-027; first compound 0.04 µM
  relative viability: 0.414
Silmitasertib + OSI-027; first compound 1.265 µM
  relative viability: 0.398
Silmitasertib + OSI-027; first compound 4 µM
  relative viability: 0.336
Silmitasertib + AZD7762; first compound 0.04 µM
  relative viability: 0.656
Silmitasertib + AZD7762; first compound 0.4 µM
  relative viability: 0.663
Silmitasertib + AZD7762; first compound 1.265 µM
  relative viability: 0.531
Silmitasertib + AZD7762; first compound 4 µM
  relative viability: 0.633
[3]; first compound 0.04 µM
  relative viability: 0.565
[3]; first compound 0.4 µM
  relative viability: 0.502
[3]; first compound 1.265 µM
  relative viability: 0.565
[3]; first compound 4 µM
  relative viability: 0.479

## NCI-H2405
[1]; first compound 0.04 µM
  relative viability: 0.681
[1]; first compound 0.4 µM
  relative viability: 0.605
[1]; first compound 1.265 µM
  relative viability: 0.619
[1]; first compound 4 µM
  relative viability: 0.775
[2]; first compound 0.04 µM
  relative viability: 0.75
[2]; first compound 0.4 µM
  relative viability: 0.507
[2]; first compound 1.265 µM
  relative viability: 0.757
[2]; first compound 4 µM
  relative viability: 0.71
Silmitasertib + OSI-027; first compound 0.04 µM
  relative viability: 0.646
Silmitasertib + OSI-027; first compound 0.4 µM
  relative viability: 0.518
Silmitasertib + OSI-027; first compound 1.265 µM
  relative viability: 0.498
Silmitasertib + OSI-027; first compound 4 µM
  relative viability: 0.567
Silmitasertib + AZD7762; first compound 0.04 µM
  relative viability: 0.803
Silmitasertib + AZD7762; first compound 0.4 µM
  relative viability: 0.754
Silmitasertib + AZD7762; first compound 1.265 µM
  relative viability: 0.617
Silmitasertib + AZD7762; first compound 4 µM
  relative viability: 0.634
[3]; first compound 0.04 µM
  relative viability: 1.1
[3]; first compound 0.4 µM
  relative viability: 0.927
[3]; first compound 1.265 µM
  relative viability: 0.839
[3]; first compound 4 µM
  relative viability: 0.519

## NCI-H3122
[1]; first compound 0.04 µM
  relative viability: 0.204
[1]; first compound 0.4 µM
  relative viability: 0.174
[1]; first compound 1.265 µM
  relative viability: 0.212
[1]; first compound 4 µM
  relative viability: 0.264
[2]; first compound 0.04 µM
  relative viability: 0.104
[2]; first compound 0.4 µM
  relative viability: 0.0852
[2]; first compound 1.265 µM
  relative viability: 0.0992
[2]; first compound 4 µM
  relative viability: 0.123
Silmitasertib + OSI-027; first compound 0.04 µM
  relative viability: 0.993
Silmitasertib + OSI-027; first compound 0.4 µM
  relative viability: 0.888
Silmitasertib + OSI-027; first compound 1.265 µM
  relative viability: 0.972
Silmitasertib + OSI-027; first compound 4 µM
  relative viability: 0.826
Silmitasertib + AZD7762; first compound 0.04 µM
  relative viability: 1.04
Silmitasertib + AZD7762; first compound 0.4 µM
  relative viability: 0.705
Silmitasertib + AZD7762; first compound 1.265 µM
  relative viability: 0.99
Silmitasertib + AZD7762; first compound 4 µM
  relative viability: 0.92
[3]; first compound 0.04 µM
  relative viability: 1.04
[3]; first compound 0.4 µM
  relative viability: 0.807
[3]; first compound 1.265 µM
  relative viability: 0.679
[3]; first compound 4 µM
  relative viability: 1.19

## PC-3 [JPC-3]
[1]; first compound 0.04 µM
  relative viability: 0.716
[1]; first compound 0.4 µM
  relative viability: 0.661
[1]; first compound 1.265 µM
  relative viability: 0.795
[1]; first compound 4 µM
  relative viability: 0.632
[2]; first compound 0.04 µM
  relative viability: 0.716
[2]; first compound 0.4 µM
  relative viability: 0.571
[2]; first compound 1.265 µM
  relative viability: 0.746
[2]; first compound 4 µM
  relative viability: 0.654
Silmitasertib + OSI-027; first compound 0.04 µM
  relative viability: 0.841
Silmitasertib + OSI-027; first compound 0.4 µM
  relative viability: 0.573
Silmitasertib + OSI-027; first compound 1.265 µM
  relative viability: 0.777
Silmitasertib + OSI-027; first compound 4 µM
  relative viability: 0.573
Silmitasertib + AZD7762; first compound 0.04 µM
  relative viability: 0.862
Silmitasertib + AZD7762; first compound 0.4 µM
  relative viability: 0.723
Silmitasertib + AZD7762; first compound 1.265 µM
  relative viability: 0.897
Silmitasertib + AZD7762; first compound 4 µM
  relative viability: 0.75
[3]; first compound 0.04 µM
  relative viability: 0.815
[3]; first compound 0.4 µM
  relative viability: 0.706
[3]; first compound 1.265 µM
  relative viability: 0.833
[3]; first compound 4 µM
  relative viability: 0.436

## PC-14
[1]; first compound 0.04 µM
  relative viability: 1.07
[1]; first compound 1.265 µM
  relative viability: 0.802
[1]; first compound 4 µM
  relative viability: 0.633
[2]; first compound 0.04 µM
  relative viability: 0.188
[2]; first compound 1.265 µM
  relative viability: 0.14
[2]; first compound 4 µM
  relative viability: 0.179
Silmitasertib + OSI-027; first compound 0.04 µM
  relative viability: 1.03
Silmitasertib + OSI-027; first compound 0.4 µM
  relative viability: 0.537
Silmitasertib + OSI-027; first compound 1.265 µM
  relative viability: 0.706
Silmitasertib + OSI-027; first compound 4 µM
  relative viability: 0.46
Silmitasertib + AZD7762; first compound 0.04 µM
  relative viability: 0.336
Silmitasertib + AZD7762; first compound 1.265 µM
  relative viability: 0.399
Silmitasertib + AZD7762; first compound 4 µM
  relative viability: 0.321
[3]; first compound 0.04 µM
  relative viability: 0.893
[3]; first compound 1.265 µM
  relative viability: 0.734
[3]; first compound 4 µM
  relative viability: 0.482

## RERF-LC-KJ
[1]; first compound 0.04 µM
  relative viability: 0.926
[1]; first compound 0.4 µM
  relative viability: 0.722
[1]; first compound 1.265 µM
  relative viability: 0.661
[1]; first compound 4 µM
  relative viability: 0.541
[2]; first compound 0.04 µM
  relative viability: 1.24
[2]; first compound 0.4 µM
  relative viability: 1.19
[2]; first compound 1.265 µM
  relative viability: 1.08
[2]; first compound 4 µM
  relative viability: 0.633
Silmitasertib + OSI-027; first compound 0.04 µM
  relative viability: 0.627
Silmitasertib + OSI-027; first compound 0.4 µM
  relative viability: 0.484
Silmitasertib + OSI-027; first compound 1.265 µM
  relative viability: 0.41
Silmitasertib + OSI-027; first compound 4 µM
  relative viability: 0.373
Silmitasertib + AZD7762; first compound 0.04 µM
  relative viability: 1.07
Silmitasertib + AZD7762; first compound 0.4 µM
  relative viability: 0.785
Silmitasertib + AZD7762; first compound 1.265 µM
  relative viability: 0.763
Silmitasertib + AZD7762; first compound 4 µM
  relative viability: 0.344
[3]; first compound 0.04 µM
  relative viability: 0.768
[3]; first compound 0.4 µM
  relative viability: 0.517
[3]; first compound 1.265 µM
  relative viability: 0.463
[3]; first compound 4 µM
  relative viability: 0.371

## SW 900
[1]; first compound 0.04 µM
  relative viability: 0.929
[1]; first compound 0.4 µM
  relative viability: 0.624
[1]; first compound 1.265 µM
  relative viability: 0.647
[1]; first compound 4 µM
  relative viability: 0.492
[2]; first compound 0.04 µM
  relative viability: 0.188
[2]; first compound 0.4 µM
  relative viability: 0.167
[2]; first compound 1.265 µM
  relative viability: 0.157
[2]; first compound 4 µM
  relative viability: 0.178
Silmitasertib + OSI-027; first compound 0.04 µM
  relative viability: 0.648
Silmitasertib + OSI-027; first compound 0.4 µM
  relative viability: 0.304
Silmitasertib + OSI-027; first compound 1.265 µM
  relative viability: 0.388
Silmitasertib + OSI-027; first compound 4 µM
  relative viability: 0.207
Silmitasertib + AZD7762; first compound 0.04 µM
  relative viability: 0.72
Silmitasertib + AZD7762; first compound 0.4 µM
  relative viability: 0.578
Silmitasertib + AZD7762; first compound 1.265 µM
  relative viability: 0.691
Silmitasertib + AZD7762; first compound 4 µM
  relative viability: 0.338
[3]; first compound 0.04 µM
  relative viability: 0.585
[3]; first compound 0.4 µM
  relative viability: 0.403
[3]; first compound 1.265 µM
  relative viability: 0.446
[3]; first compound 4 µM
  relative viability: 0.172
